{
  "source": "patent US9447136B2",
  "about": "“Semisynthetic derivatives of Nystatin A1” (BLIRT S.A., priority 2012, dated 2016)",
  "key": {"[1]": {"system": "Aspergillus niger LOCK E201", "experiment": "Antifungal activity in vitro, serial dilution in RPMI 1640", "format": "cell-based", "settings": "Table 2B", "in_short": "(§1)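 Optical density at 531 nm served as the growth read-out after serial dilution of compound in RPMI 1640 buffered to pH 7.0 per the NCCLS M27-A2 standard. IC50 values came from concentration–A531 plots (50% of control), MIC values from the lowest concentration holding A531 at no more than 20% of control.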"}, "[2]": {"system": "Candida albicans ATCC 10231", "experiment": "Antifungal activity in vitro, serial dilution in RPMI 1640", "format": "cell-based", "in_short": "as §1"}, "Candida arborea KKP 319": {"system": "Candida arborea KKP 319", "experiment": "Antifungal activity in vitro, serial dilution in RPMI 1640", "format": "cell-based", "settings": "Table 2B", "in_short": "as §1"}, "[3]": {"system": "Candida dubliniensis CBS 7987", "experiment": "Antifungal activity in vitro, serial dilution in RPMI 1640", "format": "cell-based", "settings": "Table 2B", "in_short": "as §1"}, "[4]": {"system": "Candida glabrata DSM 11226", "experiment": "Antifungal activity in vitro, serial dilution in RPMI 1640", "format": "cell-based", "settings": "Table 2A; RPMI 1640, pH 7.0", "in_short": "as §1"}, "Candida krusei DSM 6128": {"system": "Candida krusei DSM 6128", "experiment": "Antifungal activity in vitro, serial dilution in RPMI 1640", "format": "cell-based", "settings": "Table 2A; RPMI 1640, pH 7.0", "in_short": "as §1"}, "[5]": {"system": "Candida lipolytica KKP 322", "experiment": "Antifungal activity in vitro, serial dilution in RPMI 1640", "format": "cell-based", "settings": "Table 2B", "in_short": "as §1"}, "[6]": {"system": "Candida lusitaniae DSM 70102", "experiment": "Antifungal activity in vitro, serial dilution in RPMI 1640", "format": "cell-based", "settings": "Table 2A; RPMI 1640, pH 7.0", "in_short": "as §1"}, "[7]": {"system": "Candida parapsilosis DSM 5784", "experiment": "Antifungal activity in vitro, serial dilution in RPMI 1640", "format": "cell-based", "settings": "Table 2B", "in_short": "as §1"}, "[8]": {"system": "Candida pseudotropicalis KKP 324", "experiment": "Antifungal activity in vitro, serial dilution in RPMI 1640", "format": "cell-based", "settings": "Table 2B", "in_short": "as §1"}, "[9]": {"system": "Candida quilliermondii DSM 11947", "experiment": "Antifungal activity in vitro, serial dilution in RPMI 1640", "format": "cell-based", "settings": "Table 2B", "in_short": "as §1"}, "[10]": {"system": "Candida stellatoidea CBS 1905", "experiment": "Antifungal activity in vitro, serial dilution in RPMI 1640", "format": "cell-based", "settings": "Table 2B", "in_short": "as §1"}, "[11]": {"system": "Candida tropicalis KKP 334", "experiment": "Antifungal activity in vitro, serial dilution in RPMI 1640", "format": "cell-based", "settings": "Table 2A; RPMI 1640, pH 7.0", "in_short": "as §1"}, "[12]": {"system": "Saccharomyces cerevisiae ATCC 9763", "experiment": "Antifungal activity in vitro, serial dilution in RPMI 1640", "format": "cell-based", "in_short": "as §1"}, "[13]": {"system": "Trichoderma viride LOCK E159", "experiment": "Antifungal activity in vitro, serial dilution in RPMI 1640", "format": "cell-based", "settings": "Table 2B", "in_short": "as §1"}, "Human erythrocytes": {"system": "Human erythrocytes", "experiment": "Hemotoxicity (hemolytic activity)", "settings": "human erythrocytes; concentration causing 10% of hemolysis", "in_short": "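Human erythrocytes in saline (2×10^7/ml) were incubated with serially diluted compound at 37 °C for 30 min, then centrifuged. Released hemoglobin was read as A540 against 0.1% Triton X-100 as full hemolysis. EH50 is the interpolated concentration giving 50% of the control A540.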"}, "Candida albicans 5674": {"system": "Candida albicans 5674", "experiment": "Antifungal activity towards resistant (MDR) strains", "format": "cell-based", "settings": "C. albicans 5674 overexpressing CDR1 and CDR2", "in_short": "(§2)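 Optical density at λ=660 nm served as read-out in a broth microdilution test (buffered RPMI 1640, M27-A2 standard procedure). MIC corresponded to the concentration reducing A660 to no more than 20% of the control sample value.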"}, "Candida albicans B3": {"system": "Candida albicans B3", "experiment": "Antifungal activity towards resistant (MDR) strains", "format": "cell-based", "settings": "fluconazole sensitive, parent strain for B4", "in_short": "as §2"}, "Candida albicans B4": {"system": "Candida albicans B4", "experiment": "Antifungal activity towards resistant (MDR) strains", "format": "cell-based", "settings": "fluconazole-resistant due to the overexpression of CaMDR1", "in_short": "as §2"}, "Candida albicans F2": {"system": "Candida albicans F2", "experiment": "Antifungal activity towards resistant (MDR) strains", "format": "cell-based", "settings": "fluconazole sensitive, parent strain for F5", "in_short": "as §2"}, "Candida albicans F5": {"system": "Candida albicans F5", "experiment": "Antifungal activity towards resistant (MDR) strains", "format": "cell-based", "settings": "fluconazole-resistant due to the overexpression of CaMDR1 and ERG11", "in_short": "as §2"}, "Candida albicans Gu4": {"system": "Candida albicans Gu4", "experiment": "Antifungal activity towards resistant (MDR) strains", "format": "cell-based", "settings": "fluconazole sensitive, parent strain for Gu5", "in_short": "as §2"}, "Candida albicans Gu5": {"system": "Candida albicans Gu5", "experiment": "Antifungal activity towards resistant (MDR) strains", "format": "cell-based", "settings": "fluconazole-resistant due to the overexpression of CDR1 and CDR2", "in_short": "as §2"}, "Candida albicans STY19": {"system": "Candida albicans STY19", "experiment": "Antifungal activity towards resistant (MDR) strains", "format": "cell-based", "settings": "5674 mutant derivative, deletion of CDR1", "in_short": "as §2"}, "Candida albicans STY31": {"system": "Candida albicans STY31", "experiment": "Antifungal activity towards resistant (MDR) strains", "format": "cell-based", "settings": "5674 mutant derivative, deletion of CDR1 and CDR2", "in_short": "as §2"}, "Candida albicans STY7": {"system": "Candida albicans STY7", "experiment": "Antifungal activity towards resistant (MDR) strains", "format": "cell-based", "settings": "5674 mutant derivative, deletion of CDR2", "in_short": "as §2"}, "CCRF-CEM": {"system": "CCRF-CEM", "experiment": "Cytotoxic activity against mammalian cells in tissue culture (MTT)", "format": "cell-based, human", "settings": "CCRF-CEM, 120 h, MTT", "in_short": "(§3)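 Cells at 1.2×10^4/well were exposed to serial 2× DMSO dilutions for 120 h at 37 °C: CCRF-CEM in RPMI 1640 + 10% FBS, HepG2 in MEM + 10% FBS, LLC-PK1 in Medium 199 + 3% FBS. MTT was added for 4 h and A540 read. IC50 is the concentration halving A540 versus DMSO control.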"}, "HepG2": {"system": "HepG2", "experiment": "Cytotoxic activity against mammalian cells in tissue culture (MTT)", "format": "cell-based, human", "settings": "HepG2, 120 h, MTT", "in_short": "as §3"}, "LLC-PK1": {"system": "LLC-PK1", "experiment": "Cytotoxic activity against mammalian cells in tissue culture (MTT)", "format": "cell-based, pig", "settings": "LLC-PK1, 120 h, MTT", "in_short": "as §3"}, "[14]": {"settings": "Table 2A, RPMI 1640, pH 7.0, A531 at most 20% of control"}},
  "data": [
    {"smiles": "CC1OC(O[C@H]2/C=C/C=C/C=C/C=C/CC/C=C/C=C/[C@H](C)[C@@H](O)[C@@H](C)[C@H](C)OC(=O)C[C@H](O)C[C@H](O)C[C@H](O)CC[C@@H](O)[C@H](O)CC3(O)C[C@H](O)[C@@H](C(=O)O)[C@H](C2)O3)C(O)C(NC(=S)NCC(C)(C)CN(C)C)C1O", "note": "(some centres unmarked) [Compound N19, N-{3-[3-(N,N-dimethylamino)-2,2-dimethylpropyl]thioureidyl}nystatin A1]", "values": [
      {"measurement": "MIC Aspergillus niger LOCK E201", "setting": "[1]", "value": 8, "unit": "µg/mL"},
      {"measurement": "Antifungal activity Candida albicans ATCC 10231 IC50", "setting": "[2]; Table 2A, RPMI 1640, pH 7.0, A531 50% of control", "value": 2.90, "unit": "µg/mL"},
      {"measurement": "Antifungal activity Candida albicans ATCC 10231 MIC", "setting": "[2]; [14]", "value": 4, "unit": "µg/mL"},
      {"measurement": "MIC Candida albicans ATCC 10231", "setting": "[2]; Table 2B", "value": 4, "unit": "µg/mL"},
      {"measurement": "MIC Candida arborea KKP 319", "setting": "Candida arborea KKP 319", "value": 4, "unit": "µg/mL"},
      {"measurement": "MIC Candida dubliniensis CBS 7987", "setting": "[3]", "value": 4, "unit": "µg/mL"},
      {"measurement": "Antifungal activity Candida glabrata DSM 11226 MIC", "setting": "[4]", "value": 8, "unit": "µg/mL"},
      {"measurement": "Antifungal activity Candida krusei DSM 6128 MIC", "setting": "Candida krusei DSM 6128", "value": 8, "unit": "µg/mL"},
      {"measurement": "MIC Candida lipolytica KKP 322", "setting": "[5]", "value": 4, "unit": "µg/mL"},
      {"measurement": "Antifungal activity Candida lusitaniae DSM 70102 MIC", "setting": "[6]", "value": 4, "unit": "µg/mL"},
      {"measurement": "MIC Candida parapsilosis DSM 5784", "setting": "[7]", "value": 4, "unit": "µg/mL"},
      {"measurement": "MIC Candida pseudotropicalis KKP 324", "setting": "[8]", "value": 4, "unit": "µg/mL"},
      {"measurement": "MIC Candida quilliermondii DSM 11947", "setting": "[9]", "value": 4, "unit": "µg/mL"},
      {"measurement": "MIC Candida stellatoidea CBS 1905", "setting": "[10]", "value": 8, "unit": "µg/mL"},
      {"measurement": "Antifungal activity Candida tropicalis KKP 334 MIC", "setting": "[11]", "value": 4, "unit": "µg/mL"},
      {"measurement": "Antifungal activity Saccharomyces cerevisiae ATCC 9763 MIC", "setting": "[12]; [14]", "value": 4, "unit": "µg/mL"},
      {"measurement": "MIC Saccharomyces cerevisiae ATCC 9763", "setting": "[12]; Table 2B", "value": 4, "unit": "µg/mL"},
      {"measurement": "MIC Trichoderma viride LOCK E159", "setting": "[13]", "value": 8, "unit": "µg/mL"},
      {"measurement": "EH10", "setting": "Human erythrocytes", "value": 209.91, "unit": "µg/mL"},
      {"measurement": "MIC Candida albicans 5674", "setting": "Candida albicans 5674", "value": 4, "unit": "µg/mL"},
      {"measurement": "MIC Candida albicans B3", "setting": "Candida albicans B3", "value": 4, "unit": "µg/mL"},
      {"measurement": "MIC Candida albicans B4", "setting": "Candida albicans B4", "value": 4, "unit": "µg/mL"},
      {"measurement": "MIC Candida albicans F2", "setting": "Candida albicans F2", "value": 4, "unit": "µg/mL"},
      {"measurement": "MIC Candida albicans F5", "setting": "Candida albicans F5", "value": 4, "unit": "µg/mL"},
      {"measurement": "MIC Candida albicans Gu4", "setting": "Candida albicans Gu4", "value": 4, "unit": "µg/mL"},
      {"measurement": "MIC Candida albicans Gu5", "setting": "Candida albicans Gu5", "value": 4, "unit": "µg/mL"},
      {"measurement": "MIC Candida albicans STY19", "setting": "Candida albicans STY19", "value": 4, "unit": "µg/mL"},
      {"measurement": "MIC Candida albicans STY31", "setting": "Candida albicans STY31", "value": 4, "unit": "µg/mL"},
      {"measurement": "MIC Candida albicans STY7", "setting": "Candida albicans STY7", "value": 4, "unit": "µg/mL"},
      {"measurement": "Cytotoxicity IC50 CCRF-CEM", "setting": "CCRF-CEM", "value": ">100", "unit": "µg/mL"},
      {"measurement": "Cytotoxicity IC50 HepG2", "setting": "HepG2", "value": ">100", "unit": "µg/mL"},
      {"measurement": "Cytotoxicity IC50 LLC-PK1", "setting": "LLC-PK1", "value": ">100", "unit": "µg/mL"}
    ]}
  ]
}
